For the first assay, the target named is T1, human TGR5 (Homo sapiens, UniProt Q8TDU6).
T1 construct: expressed in transfected cells
T1 sequence (Q8TDU6 1-330): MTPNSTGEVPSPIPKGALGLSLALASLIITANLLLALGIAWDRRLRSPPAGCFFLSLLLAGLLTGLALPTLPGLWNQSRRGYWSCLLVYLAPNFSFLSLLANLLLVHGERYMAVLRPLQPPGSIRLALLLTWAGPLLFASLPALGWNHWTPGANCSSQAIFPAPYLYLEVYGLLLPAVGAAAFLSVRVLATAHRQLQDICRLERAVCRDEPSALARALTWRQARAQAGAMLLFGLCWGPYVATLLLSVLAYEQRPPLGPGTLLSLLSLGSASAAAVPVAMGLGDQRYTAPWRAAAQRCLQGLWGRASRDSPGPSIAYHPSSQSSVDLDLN
The assay is described as follows: Cell-based TGR5 assay, HEK293 cells stably expressing human TGR5, cAMP by HTRF. The conditions noted are these: HEK293 cells stably expressing human TGR5, 30 min at 37 C, 0.05 nM to 10 μM, read-out: pEC50 Human TGR5 (converted). As to the method: Two primary cell based screens were performed. The first utilized HEK293 cells stably transfected to heterologously express human TGR5. The second screen used the human caecum carcinoma cell line NCI-H716 which endogenously expresses human TGR5. In both assays, cells are treated with candidate TGR5 activators and assessed for the increased intercellular levels of cAMP.
HEK293 cells were transfected with a vector that expresses a gene encoding human TGR5, and a stable cell line was isolated using drug selection following standard techniques. Cells were grown overnight at 37° C./5% CO2 prior to assay.
(§1) TGR5-mediated cAMP generation was measured using a homogeneous time resolved fluorescence (HTRF) detection method (Cisbio). Test compounds were dissolved in DMSO to a final concentration of 10 mM. Serial 3-fold dilutions of the stock solution were made in DMSO, and these solutions were diluted 100-fold into Hanks Balanced Salt Solution supplemented with 10 mM HEPES pH 7.4 and 0.5 mM isobutyl methylxanthine (IBMX). Prior to assay, culture medium was replaced with fresh medium, and test compounds diluted in HBSS/HEPES/IBMX were added to the cells and incubated at 37° C. for 30 minutes.
(§2) Following incubation with test compounds, cAMP was detected through the successive addition of cAMP labeled with the modified allophyocyanin dye d2 (cAMP-d2) and cryptate-labeled anti-cAMP in lysis buffer, and reading HTRF per the manufacturer's instructions. A standard curve was used to convert the raw HTRF data into [cAMP].
(In TR-FRET formats the signal depends on donor and acceptor labels being close together.)
As to `CC(c1cc(Cl)ccc1Cl)N1CCC[C@H]1C(=O)N1CCN(C2CC2)c2ccccc21` (single isomer, unassigned) [Example 67], the EC50 is 1260 to 50100 nM.
Turning to `CC(NCc1cc(Cl)ccc1Cl)C(=O)N1CCN(C2CC2)c2ccccc21` (stereo not shown) [Example 7, 1-(4-cyclopropyl-3,4-dihydroquinoxalin-1(2H)-yl)-2-(2,5-dichlorobenzylamino)propan-1-one], the EC50 is 126 to 1000 nM.
Still for that read-out and setting: next, `O=C(O)CCc1cc(Cl)c(OCC2(C(=O)N3CCN(C4CC4)c4ccccc43)CC2)cc1Cl` [Example 33, 3-[2,5-dichloro-4-([1-[(4-cyclopropyl-1,2,3,4-tetrahydroquinoxalin-1-yl)carbonyl]cyclopropyl]methoxy)phenyl]propanoic acid]: 1260 to 50100 nM; `COc1ccccc1N(C)C(=O)C1(NCc2cc(Cl)ccc2Cl)CC1` [Example 38, 1-(2,5-dichlorobenzylamino)-N-(2-methoxyphenyl)-N-methylcyclopropanecarboxamide]: under 100 nM; `O=C(N1CCN(C2CC2)c2ccccc21)C1(OCc2cc(Cl)ccc2Cl)CCC1` [Example 41, 1-cyclopropyl-4-([1-[(2,5-dichlorophenyl)methoxy]cyclobutyl]carbonyl)-1,2,3,4-tetrahydroquinoxaline]: under 100 nM.
The same measure, in the same setting: in the case of `O=C(N1CCN(C2CC2)c2ccccc21)C1(OCc2cc(Cl)ccc2C(F)(F)F)CC1` [Example 42, (1-(5-chloro-2-(trifluoromethyl)benzyloxy)cyclopropyl)(4-cyclopropyl-3,4-dihydroquinoxalin-1(2H)-yl)methanone] it was 126 to 1000 nM.
Still for that read-out and setting: next, `Cn1nc(C(=O)O)cc1OCc1cc(Cl)c(CN2CSC[C@H]2C(=O)N2CCN(C3CC3)c3ccccc32)cc1Cl` [Example 233]: 126 to 1000 nM.
Turning to `O=C(NC[C@H](O)[C@@H](O)[C@H](O)[C@H](O)CO)c1cnn(Cc2cc(Cl)c(CN3CSC[C@H]3C(=O)N3CCN(C4CC4)c4ccccc43)cc2Cl)c1` [Example 234], the EC50 was under 100 nM.
In the case of `CN(C[C@H](O)[C@@H](O)[C@H](O)[C@H](O)CO)C(=O)c1cnn(Cc2cc(Cl)c(CN3CSC[C@H]3C(=O)N3CCN(C4CC4)c4ccccc43)cc2Cl)c1` [Example 235], the EC50 was 126 to 1000 nM.
Still for that read-out and setting: next, `O=C(NCCCc1cc(Cl)c(OCC2(C(=O)N3CCN(C4CC4)c4ccccc43)CC2)cc1Cl)NC[C@H](O)[C@@H](O)[C@H](O)[C@H](O)CO` [Example 250]: 126 to 1000 nM; `O=C(NCCCCc1cc(Cl)c(OCC2(C(=O)N3CCN(C4CC4)c4ccccc43)CC2)cc1Cl)NC[C@H](O)[C@@H](O)[C@H](O)[C@H](O)CO` [Example 251]: 126 to 1000 nM.
As to `CN(C[C@H](O)[C@@H](O)[C@H](O)[C@H](O)CO)C(=O)NCCCc1cc(Cl)c(OCC2(C(=O)N3CCN(C4CC4)c4ccccc43)CC2)cc1Cl` [Example 253], the EC50 was 126 to 1000 nM.
On the same count and under the same terms, next, `CN(C[C@H](O)[C@@H](O)[C@H](O)[C@H](O)CO)C(=O)CCCCc1ccc(Cl)c(CNC2(C(=O)N3CCN(C4CC4)c4ccccc43)CC2)c1` [Example 260]: 126 to 1000 nM; `O=C(CCCCc1ccc(Cl)c(CNC2(C(=O)N3CCN(C4CC4)c4ccccc43)CC2)c1)NC[C@H](O)[C@@H](O)[C@H](O)[C@H](O)CO` [Example 261]: 126 to 1000 nM; `CN(C[C@H](O)[C@@H](O)[C@H](O)[C@H](O)CO)C(=O)CCCCc1ccc(Cl)c(CNC2(C(=O)N3CCN(C4CC4)c4ccccc43)CC2)c1` [Example 262]: 1260 to 50100 nM.
For `O=C(CCCCc1ccc(Cl)c(CNC2(C(=O)N3CCN(C4CC4)c4ccccc43)CC2)c1)NC[C@H](O)[C@@H](O)[C@H](O)[C@H](O)CO` [Example 263], the EC50 was 1260 to 50100 nM.
Still for that read-out and setting: in the case of `O=C([C@H]1C[C@H](F)CN1Cc1cc(Cl)ccc1C(F)(F)F)N1CCN(C2CC2)c2ccccc21` [Example 264] it was 126 to 1000 nM.
With `CN(C[C@H](O)[C@@H](O)[C@H](O)[C@H](O)CO)C(=O)CCc1cc(Cl)c(CN2C[C@@H](F)C[C@H]2C(=O)N2CCN(C3CC3)c3ccccc32)cc1Cl` [Example 266], the EC50 is 1260 to 50100 nM.
On the same count and under the same terms, next, `CN(C[C@H](O)[C@@H](O)[C@@H](O)[C@H](O)CO)C(=O)CCc1cc(Cl)c(CN2C[C@@H](F)C[C@H]2C(=O)N2CCN(C3CC3)c3ccccc32)cc1Cl` [Example 267]: 1260 to 50100 nM; `CN(C[C@H](O)[C@@H](O)[C@H](O)[C@H](O)CO)C(=O)CCCCc1ccc(C(F)(F)F)c(CN2CSC[C@H]2C(=O)N2CCN(C3CC3)c3ccccc32)c1` [Example 269]: 1260 to 50100 nM.
On to `O=C([C@@H]1CSCN1Cc1cc(I)ccc1C(F)(F)F)N1CCN(C2CC2)c2ccccc21` [Example 270], for which the EC50 is 126 to 1000 nM.
The same measure, in the same setting: next, `O=C(CCCCc1ccc(C(F)(F)F)c(CN2CSC[C@H]2C(=O)N2CCN(C3CC3)c3ccccc32)c1)NC[C@H](O)[C@@H](O)[C@H](O)[C@H](O)CO` [Example 271]: 1260 to 50100 nM; `O=C(CCCCc1ccc(C(F)(F)F)c(CNC2(C(=O)N3CCN(C4CC4)c4ccccc43)CC2)c1)NC[C@H](O)[C@@H](O)[C@H](O)[C@H](O)CO` [Example 272]: 1260 to 50100 nM; `NCCCC[C@@H]1NC(=O)N(CCCCCc2cc(Cl)c(CN3CSC[C@H]3C(=O)N3CCN(C4CC4)c4ccccc43)cc2Cl)C1=O` [Example 273]: 126 to 1000 nM.
The same measure, in the same setting: in the case of `COC(=O)[C@H](CCCCN)NC(=O)NCCCCCc1cc(Cl)c(CN2CSC[C@H]2C(=O)N2CCN(C3CC3)c3ccccc32)cc1Cl` [Example 274] it was 126 to 1000 nM; in that of `COC(=O)[C@@H](CCCCN)NC(=O)NCCCCCc1cc(Cl)c(CN2CSC[C@H]2C(=O)N2CCN(C3CC3)c3ccccc32)cc1Cl` [Example 275], 126 to 1000 nM.
`CN(C[C@H](O)[C@@H](O)[C@H](O)[C@H](O)CO)C(=O)CN(CCCCCc1cc(Cl)c(CN2CSC[C@H]2C(=O)N2CCN(C3CC3)c3ccccc32)cc1Cl)CC(=O)O` [Example 277]: the EC50 was 126 to 1000 nM.
Consider `CN(C[C@H](O)C(O)[C@H](O)[C@H](O)CO)C(=O)CC[C@H](NC(=O)CCCCc1cc(Cl)c(CN2CSC[C@H]2C(=O)N2CCN(C3CC3)c3ccccc32)cc1Cl)C(=O)N(C)C[C@H](O)[C@@H](O)[C@H](O)[C@H](O)CO` (stereo partly shown) [Example 280], for which the EC50 was 126 to 1000 nM.
In the case of `O=C(O)CN1CCN(C(=O)NCCCCCc2cc(Cl)c(CN3CSC[C@H]3C(=O)N3CCN(C4CC4)c4ccccc43)cc2Cl)CC1` [Example 281], the EC50 is under 100 nM.
Regarding `O=C([C@@H]1CSCN1Cc1cc(Cl)c(CN2CSC[C@H]2C(=O)N2CCN(C3CC3)c3ccccc32)cc1Cl)N1CCN(C2CC2)c2ccccc21` [Example 284], the EC50 is 1260 to 50100 nM.
For the compound `O=C(NC[C@H](O)[C@@H](O)[C@H](O)[C@H](O)CO)c1ccc(OCCCc2cc(Cl)c(CN3CSC[C@H]3C(=O)N3CCN(C4CC4)c4ccccc43)cc2Cl)cc1` [Example 286], the EC50 is 126 to 1000 nM.
On the same count and under the same terms, next, `CN(C(=O)[C@@H]1CSCN1Cc1cc(Cl)ccc1Cl)c1ccccc1OC1CC1` [Example 289]: 126 to 1000 nM; `CN(C(=O)[C@@H]1CSCN1Cc1cc(Cl)ccc1Cl)c1ccccc1OC1CCC1` [Example 290]: 126 to 1000 nM; `O=C(C1SCCN1Cc1cc(Cl)ccc1Cl)N1CCN(C2CC2)c2ccccc21` (stereo not shown) [Example 291]: 1260 to 50100 nM.

The next assay addresses T2, endogenously expressed TGR5 in NCI H716 (Homo sapiens, UniProt Q8TDU6).
T2 construct: human caecum carcinoma cell line NCI-H716 which endogenously expresses human TGR5; endogenous in cells; host or cells: NCI-H716
T2 sequence (Q8TDU6 1-330): T1 sequence (Q8TDU6 1-330)
Nature of the assay: Cell-based TGR5 assay, NCI-H716 cells endogenously expressing human TGR5, cAMP by HTRF. The conditions noted are these: 30 min at 37 C, 22 nM to 50 μM, read-out: pEC50 endogenously expressed TGR5 in NCI H716 (converted). As to the method: Two primary cell based screens were performed. The first utilized HEK293 cells stably transfected to heterologously express human TGR5. The second screen used the human caecum carcinoma cell line NCI-H716 which endogenously expresses human TGR5. In both assays, cells are treated with candidate TGR5 activators and assessed for the increased intercellular levels of cAMP. […]
as §1, §2
For the compound `CC(c1cc(Cl)ccc1Cl)N1CCC[C@H]1C(=O)N1CCN(C2CC2)c2ccccc21` (single isomer, unassigned) [Example 67], the EC50 was 1260 to 50100 nM.
On the same count and under the same terms, in the case of `CC(NCc1cc(Cl)ccc1Cl)C(=O)N1CCN(C2CC2)c2ccccc21` (stereo not shown) [Example 7, 1-(4-cyclopropyl-3,4-dihydroquinoxalin-1(2H)-yl)-2-(2,5-dichlorobenzylamino)propan-1-one] it was 1260 to 50100 nM; in that of `O=C(O)CCc1cc(Cl)c(OCC2(C(=O)N3CCN(C4CC4)c4ccccc43)CC2)cc1Cl` [Example 33, 3-[2,5-dichloro-4-([1-[(4-cyclopropyl-1,2,3,4-tetrahydroquinoxalin-1-yl)carbonyl]cyclopropyl]methoxy)phenyl]propanoic acid], 1260 to 50100 nM; in that of `COc1ccccc1N(C)C(=O)C1(NCc2cc(Cl)ccc2Cl)CC1` [Example 38, 1-(2,5-dichlorobenzylamino)-N-(2-methoxyphenyl)-N-methylcyclopropanecarboxamide], under 100 nM.
As for `O=C(N1CCN(C2CC2)c2ccccc21)C1(OCc2cc(Cl)ccc2Cl)CCC1` [Example 41, 1-cyclopropyl-4-([1-[(2,5-dichlorophenyl)methoxy]cyclobutyl]carbonyl)-1,2,3,4-tetrahydroquinoxaline], the EC50 is 126 to 1000 nM.
`O=C(N1CCN(C2CC2)c2ccccc21)C1(OCc2cc(Cl)ccc2C(F)(F)F)CC1` [Example 42, (1-(5-chloro-2-(trifluoromethyl)benzyloxy)cyclopropyl)(4-cyclopropyl-3,4-dihydroquinoxalin-1(2H)-yl)methanone]: the EC50 is 126 to 1000 nM.

Values taken from patent US20150148311A1, “NON-SYSTEMIC TGR5 AGONISTS” (Ardelyx, Inc., priority 2011, published 2015).
